Legend:
Assay in all cases: relative viability (nuclei count vs DMSO), 5 days (fraction); higher = more cells survive
Carfilzomib + Trametinib = compound: CC(C)C[C@H](NC(=O)[C@H](CCc1ccccc1)NC(=O)CN1CCOCC1)C(=O)N[C@@H](Cc1ccccc1)C(=O)N[C@@H](CC(C)C)C(=O)[C@@]1(C)CO1 [Carfilzomib] + CC(=O)Nc1cccc(-n2c(=O)n(C3CC3)c(=O)c3c(Nc4ccc(I)cc4F)n(C)c(=O)c(C)c32)c1 [Trametinib] (partner 0.02 µM)
How it was run: (§1)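 For relative viability, nuclei counts in treated wells were divided by those in vehicle wells. Lung cancer cell lines had been pin-tool dosed in 1536-well plates the day after seeding and cultured for 5 days, then fixed and stained in one step (final 0.05% Triton X-100, 1% formaldehyde, 1 ug/ml Hoechst) and imaged at 4×. Doses were one drug alone or a fixed anchor-drug dose plus five library-drug doses (not always all listed) in √10 steps, and values are duplicate-plate medians.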

Carfilzomib + Decitabine = compound: CC(C)C[C@H](NC(=O)[C@H](CCc1ccccc1)NC(=O)CN1CCOCC1)C(=O)N[C@@H](Cc1ccccc1)C(=O)N[C@@H](CC(C)C)C(=O)[C@@]1(C)CO1 [Carfilzomib] + Nc1ncn([C@H]2C[C@H](O)[C@@H](CO)O2)c(=O)n1 [Decitabine] (partner 2 µM)
How it was run: as §1

Carfilzomib + Luminespib = compound: CC(C)C[C@H](NC(=O)[C@H](CCc1ccccc1)NC(=O)CN1CCOCC1)C(=O)N[C@@H](Cc1ccccc1)C(=O)N[C@@H](CC(C)C)C(=O)[C@@]1(C)CO1 [Carfilzomib] + CCNC(=O)c1noc(-c2cc(C(C)C)c(O)cc2O)c1-c1ccc(CN2CCOCC2)cc1 [Luminespib] (partner 0.01 µM)
How it was run: as §1

Olaparib + Phenformin = compound: O=C(c1cc(Cc2n[nH]c(=O)c3ccccc23)ccc1F)N1CCN(C(=O)C2CC2)CC1 [Olaparib] + N=C(N)NC(=N)NCCc1ccccc1 [Phenformin] (partner 250 µM)
How it was run: as §1

Q: How did the relative viability (Carfilzomib + Trametinib; first compound 0.001 µM) turn out when NCI-H1793 was run?
A: The relative viability was 0.38.

Q: And the relative viability (Carfilzomib + Trametinib; first compound 0.003162 µM)?
A: The relative viability was 0.497.

Q: What about the relative viability (Carfilzomib + Trametinib; first compound 0.01 µM) of the same cell line?
A: The relative viability was 0.46.

Q: What about the relative viability (Carfilzomib + Trametinib; first compound 0.03162 µM) of the same cell line?
A: Its relative viability is 0.472.

Q: And the relative viability (Carfilzomib + Trametinib; first compound 0.1 µM)?
A: The relative viability was 0.35.

Q: And the relative viability (Carfilzomib + Decitabine; first compound 0.001 µM)?
A: Its relative viability is 0.494.

Q: And the relative viability (Carfilzomib + Decitabine; first compound 0.003162 µM)?
A: Its relative viability is 0.61.

Q: What about the relative viability (Carfilzomib + Decitabine; first compound 0.01 µM) of the same cell line?
A: The relative viability was 0.531.

Q: And the relative viability (Carfilzomib + Decitabine; first compound 0.03162 µM)?
A: The relative viability was 0.562.

Q: What about the relative viability (Carfilzomib + Decitabine; first compound 0.1 µM) of the same cell line?
A: The relative viability was 0.194.

Q: What about the relative viability (Carfilzomib + Luminespib; first compound 0.003162 µM) of the same cell line?
A: The relative viability was 0.216.

Q: What about the relative viability (Carfilzomib + Luminespib; first compound 0.01 µM) of the same cell line?
A: The relative viability was 0.172.

Q: And the relative viability (Carfilzomib + Luminespib; first compound 0.03162 µM)?
A: The relative viability was 0.181.

Q: What about the relative viability (Carfilzomib + Luminespib; first compound 0.1 µM) of the same cell line?
A: Its relative viability is 0.154.

Q: And the relative viability (Olaparib + Phenformin; first compound 0.08 µM)?
A: The relative viability was 0.341.

Q: What about the relative viability (Olaparib + Phenformin; first compound 0.253 µM) of the same cell line?
A: Its relative viability is 0.348.

Q: What about the relative viability (Olaparib + Phenformin; first compound 2.53 µM) of the same cell line?
A: The relative viability was 0.305.

Q: And the relative viability (Olaparib + Phenformin; first compound 8 µM)?
A: The relative viability was 0.287.

Reference: the supplement of paper PMC10307832
